# Measured values as given in US12428408B2, “Fused heterocyclic mescaline derivatives” (Enveric Biosciences Canada Inc., priority 2022, dated 2025).
# Like-named read-outs stand apart in the source and are kept apart here.
# How the values were obtained:
# D3 (h) = target: T1, D3 (h) (Homo sapiens, UniProt P35462); assay: Competition assay to measure binding affinity at D3 receptor; conditions: test ligand 10 μM; [3H]methylspiperone […]
# T1 construct: host or cells: CHO cells
# 5-HT1D (r) = target: T2, 5-HT1D (r) (Rattus norvegicus, UniProt P28565); assay: Competition assay to measure binding affinity at 5-HT1D receptor; conditions: test ligand 10 μM; [3H]serotonin 1 nM
# T2 construct: host or cells: CHO cells
# T2 sequence (P28565 whole entry): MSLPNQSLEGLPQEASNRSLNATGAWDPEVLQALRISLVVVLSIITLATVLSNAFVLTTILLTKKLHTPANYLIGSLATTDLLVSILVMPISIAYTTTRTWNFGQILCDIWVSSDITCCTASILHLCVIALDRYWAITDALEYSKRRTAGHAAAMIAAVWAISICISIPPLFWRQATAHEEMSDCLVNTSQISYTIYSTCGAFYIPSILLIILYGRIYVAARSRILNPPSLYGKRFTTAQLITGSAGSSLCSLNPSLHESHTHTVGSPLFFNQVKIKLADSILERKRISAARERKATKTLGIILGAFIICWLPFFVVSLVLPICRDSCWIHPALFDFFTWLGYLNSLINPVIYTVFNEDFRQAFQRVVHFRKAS
# 5-HT2B (h) = target: T3, 5-HT2B (h) (Homo sapiens, UniProt P41595); assay: Competition assay to measure binding affinity at 5-HT2B receptor; conditions: test ligand 10 μM; [3H]mesulergine 2 nM
# T3 construct: host or cells: CHO cells
# T3 sequence (P41595 whole entry): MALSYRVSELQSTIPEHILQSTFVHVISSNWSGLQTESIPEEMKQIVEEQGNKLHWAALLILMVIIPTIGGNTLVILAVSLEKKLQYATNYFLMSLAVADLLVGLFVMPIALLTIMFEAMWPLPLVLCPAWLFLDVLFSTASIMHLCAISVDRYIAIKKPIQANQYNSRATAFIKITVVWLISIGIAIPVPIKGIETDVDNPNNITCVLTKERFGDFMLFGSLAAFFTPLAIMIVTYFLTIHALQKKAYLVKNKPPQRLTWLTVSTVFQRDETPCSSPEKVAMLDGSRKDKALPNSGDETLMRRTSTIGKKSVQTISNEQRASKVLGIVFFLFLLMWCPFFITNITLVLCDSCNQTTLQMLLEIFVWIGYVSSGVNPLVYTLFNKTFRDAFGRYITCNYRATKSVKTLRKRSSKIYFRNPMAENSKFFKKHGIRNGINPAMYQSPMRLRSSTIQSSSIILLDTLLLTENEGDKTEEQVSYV
# 5-HT1A receptor [1] = target: T4, 5-HT1A receptor (Homo sapiens, UniProt P08908); assay: Functional 5-HT1A receptor cAMP assay in CHO-K1/5-HT1A/Gα15 cells; type: cell-based
# T4 construct: purchased Perkin Elmer 6110501400UA
# T4 sequence (P08908 1-422): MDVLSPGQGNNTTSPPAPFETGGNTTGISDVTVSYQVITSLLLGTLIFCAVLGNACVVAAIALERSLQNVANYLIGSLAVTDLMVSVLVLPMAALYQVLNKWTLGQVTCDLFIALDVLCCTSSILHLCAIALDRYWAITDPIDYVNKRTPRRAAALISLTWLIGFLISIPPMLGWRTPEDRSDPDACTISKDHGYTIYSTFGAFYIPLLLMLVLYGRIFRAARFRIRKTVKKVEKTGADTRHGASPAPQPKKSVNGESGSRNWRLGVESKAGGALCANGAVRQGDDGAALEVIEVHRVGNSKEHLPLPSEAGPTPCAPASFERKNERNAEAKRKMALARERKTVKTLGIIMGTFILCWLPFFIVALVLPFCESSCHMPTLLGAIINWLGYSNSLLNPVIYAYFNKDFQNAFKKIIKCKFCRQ
# [2] = target: T5, human serotonin transporter (SERT) (Homo sapiens, UniProt P31645); assay: biochemical; type: binding
# T5 construct: purchased PerkinElmer RBHSTM400UA
# T5 sequence (P31645 whole entry): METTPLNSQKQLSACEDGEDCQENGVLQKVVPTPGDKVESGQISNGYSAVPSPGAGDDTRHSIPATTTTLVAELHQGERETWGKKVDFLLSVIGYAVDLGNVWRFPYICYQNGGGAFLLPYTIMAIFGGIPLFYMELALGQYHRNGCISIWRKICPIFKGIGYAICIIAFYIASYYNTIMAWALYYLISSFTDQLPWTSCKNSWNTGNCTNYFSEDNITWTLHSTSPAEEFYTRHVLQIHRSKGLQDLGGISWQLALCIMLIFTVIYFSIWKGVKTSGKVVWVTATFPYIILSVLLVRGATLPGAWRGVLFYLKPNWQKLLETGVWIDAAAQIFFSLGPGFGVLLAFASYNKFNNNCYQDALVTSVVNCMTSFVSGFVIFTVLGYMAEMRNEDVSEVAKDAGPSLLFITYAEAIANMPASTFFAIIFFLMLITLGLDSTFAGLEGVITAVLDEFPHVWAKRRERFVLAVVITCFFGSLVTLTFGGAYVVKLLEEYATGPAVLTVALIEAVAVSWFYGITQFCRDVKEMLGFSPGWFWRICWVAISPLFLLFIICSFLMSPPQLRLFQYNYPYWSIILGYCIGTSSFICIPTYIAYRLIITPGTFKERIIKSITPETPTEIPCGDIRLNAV
# 5-HT2A receptor = 5-HT2A receptor (Homo sapiens, UniProt P28223); assay: 5-HT2A receptor radioligand competition assay (SPA)
# Sequence of 5-HT2A receptor (P28223 whole entry): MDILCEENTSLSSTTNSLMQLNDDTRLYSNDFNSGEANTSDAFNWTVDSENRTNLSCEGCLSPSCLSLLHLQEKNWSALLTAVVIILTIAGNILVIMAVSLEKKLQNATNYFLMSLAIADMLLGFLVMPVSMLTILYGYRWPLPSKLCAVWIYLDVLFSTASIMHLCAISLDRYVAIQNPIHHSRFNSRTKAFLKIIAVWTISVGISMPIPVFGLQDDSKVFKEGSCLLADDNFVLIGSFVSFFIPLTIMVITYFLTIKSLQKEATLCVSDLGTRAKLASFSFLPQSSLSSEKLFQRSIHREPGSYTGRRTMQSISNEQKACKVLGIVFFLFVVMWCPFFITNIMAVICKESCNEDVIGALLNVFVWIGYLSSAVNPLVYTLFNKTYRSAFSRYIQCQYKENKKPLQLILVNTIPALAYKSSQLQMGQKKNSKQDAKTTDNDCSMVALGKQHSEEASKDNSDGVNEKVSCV
# D2 (h) = target: T6, D2 (h) (Homo sapiens, UniProt P14416); assay: Competition assay to measure binding affinity at D2L receptor; conditions: test ligand 10 μM; [3H]methylspiperone 0.3 nM
# T6 construct: host or cells: HEK-293 cells
# T6 sequence (P14416 whole entry): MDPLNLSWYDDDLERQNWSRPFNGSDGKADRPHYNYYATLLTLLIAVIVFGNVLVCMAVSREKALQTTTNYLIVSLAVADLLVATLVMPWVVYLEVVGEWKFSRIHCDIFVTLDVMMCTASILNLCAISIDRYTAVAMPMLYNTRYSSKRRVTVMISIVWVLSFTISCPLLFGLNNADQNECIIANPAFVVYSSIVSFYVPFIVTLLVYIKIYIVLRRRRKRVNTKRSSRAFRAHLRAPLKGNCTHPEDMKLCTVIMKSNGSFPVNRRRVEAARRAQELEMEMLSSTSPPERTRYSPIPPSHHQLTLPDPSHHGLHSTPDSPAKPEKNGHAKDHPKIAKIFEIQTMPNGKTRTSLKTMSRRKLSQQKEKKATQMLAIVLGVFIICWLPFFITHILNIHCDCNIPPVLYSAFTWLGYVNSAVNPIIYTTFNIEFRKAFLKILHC
# 5-HT1B (h) = target: T7, 5-HT1B (h) (Homo sapiens, UniProt P28222); assay: Competition assay to measure binding affinity at 5-HT1B receptor; conditions: test ligand 10 μM; [3H]GR125743 1 nM
# T7 construct: host or cells: Chem-1 (RBL) cells
# T7 sequence (P28222 whole entry): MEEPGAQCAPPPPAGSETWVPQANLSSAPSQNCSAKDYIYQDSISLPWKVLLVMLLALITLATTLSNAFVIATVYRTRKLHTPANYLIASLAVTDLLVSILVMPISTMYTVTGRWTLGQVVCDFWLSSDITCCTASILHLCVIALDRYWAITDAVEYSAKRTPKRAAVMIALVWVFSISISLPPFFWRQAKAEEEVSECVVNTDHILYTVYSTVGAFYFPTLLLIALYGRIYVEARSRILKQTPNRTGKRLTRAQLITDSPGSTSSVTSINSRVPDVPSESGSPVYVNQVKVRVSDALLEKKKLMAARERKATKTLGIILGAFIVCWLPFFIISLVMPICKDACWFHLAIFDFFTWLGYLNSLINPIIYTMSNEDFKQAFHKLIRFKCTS
# 5-HT1A receptor [3] = target: T4, 5-HT1A receptor; assay: 5-HT1A receptor radioligand competition assay (SPA); type: binding; conditions: competition with 0.5 nM 8-hydroxy-DPAT [3H]; test compound 3 nM to 1 mM; read-out: 5-HT1A, Ki
# 5-HT2C (h) = target: T8, 5-HT2C (h) (Homo sapiens, UniProt P28335); assay: Competition assay to measure binding affinity at 5-HT2C receptor; conditions: test ligand 10 μM; [125I](±)DOI 0.1 nM
# T8 construct: host or cells: HEK-293 cells
# T8 sequence (P28335 33-458): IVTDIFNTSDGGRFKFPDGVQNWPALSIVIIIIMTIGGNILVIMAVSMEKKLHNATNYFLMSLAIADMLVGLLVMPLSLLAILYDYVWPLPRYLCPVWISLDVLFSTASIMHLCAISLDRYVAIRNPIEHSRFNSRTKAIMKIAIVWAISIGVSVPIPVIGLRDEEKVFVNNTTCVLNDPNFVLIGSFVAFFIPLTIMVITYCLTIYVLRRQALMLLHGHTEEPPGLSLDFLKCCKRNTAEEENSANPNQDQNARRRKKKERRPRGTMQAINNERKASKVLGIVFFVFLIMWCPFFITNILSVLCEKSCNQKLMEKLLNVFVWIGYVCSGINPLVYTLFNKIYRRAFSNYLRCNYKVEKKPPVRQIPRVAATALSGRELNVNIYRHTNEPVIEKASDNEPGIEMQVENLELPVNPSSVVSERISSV
# alpha2A (h) = target: T9, alpha2A (h) (Homo sapiens, UniProt P08913); assay: Competition assay to measure binding affinity at alpha2A receptor; conditions: test ligand 10 μM, [3H]RX 821002 1 nM; for inhibition at 10 µM: read-out: α-2A, percent of control-specific binding
# T9 construct: host or cells: CHO cells
# T9 sequence (P08913 1-465): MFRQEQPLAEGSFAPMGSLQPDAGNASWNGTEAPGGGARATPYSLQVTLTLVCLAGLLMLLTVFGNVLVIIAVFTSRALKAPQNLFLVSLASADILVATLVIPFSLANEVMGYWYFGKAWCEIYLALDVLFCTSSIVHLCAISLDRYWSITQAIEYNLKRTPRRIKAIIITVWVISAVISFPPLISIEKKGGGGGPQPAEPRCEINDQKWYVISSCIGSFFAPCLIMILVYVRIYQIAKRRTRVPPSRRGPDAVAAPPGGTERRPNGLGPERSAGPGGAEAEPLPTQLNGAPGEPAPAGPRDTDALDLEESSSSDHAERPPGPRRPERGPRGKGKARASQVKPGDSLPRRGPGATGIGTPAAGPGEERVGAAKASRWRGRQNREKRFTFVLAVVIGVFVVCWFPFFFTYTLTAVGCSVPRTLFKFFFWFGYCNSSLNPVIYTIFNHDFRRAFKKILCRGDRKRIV
# DAT (h) = target: T10, DAT (h) (Homo sapiens, UniProt Q01959); assay: Competition assay to measure binding affinity at dopamine transporter (DAT); conditions: test ligand 10 μM; [3H]BTCP 4 nM
# T10 construct: host or cells: CHO cells
# T10 sequence (Q01959 whole entry): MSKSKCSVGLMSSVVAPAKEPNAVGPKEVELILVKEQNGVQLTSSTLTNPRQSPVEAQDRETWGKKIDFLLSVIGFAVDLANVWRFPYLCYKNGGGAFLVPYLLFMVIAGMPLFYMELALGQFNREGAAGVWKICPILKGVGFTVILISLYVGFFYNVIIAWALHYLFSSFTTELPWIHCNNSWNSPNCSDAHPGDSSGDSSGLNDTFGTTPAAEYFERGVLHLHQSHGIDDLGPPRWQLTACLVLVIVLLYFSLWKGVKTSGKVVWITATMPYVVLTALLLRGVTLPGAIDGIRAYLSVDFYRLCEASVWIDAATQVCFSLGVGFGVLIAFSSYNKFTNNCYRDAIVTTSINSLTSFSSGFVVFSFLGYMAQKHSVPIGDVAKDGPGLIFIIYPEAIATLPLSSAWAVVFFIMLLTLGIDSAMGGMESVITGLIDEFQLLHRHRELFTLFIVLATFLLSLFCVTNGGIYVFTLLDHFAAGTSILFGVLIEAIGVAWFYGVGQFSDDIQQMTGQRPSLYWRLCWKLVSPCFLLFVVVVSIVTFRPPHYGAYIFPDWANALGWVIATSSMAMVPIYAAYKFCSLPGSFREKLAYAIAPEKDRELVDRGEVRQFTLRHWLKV
# NET (h) = target: T11, NET (h) (Homo sapiens, UniProt P23975); assay: Competition assay to measure binding affinity at norepinephrine transporter (NET); conditions: test ligand 10 μM; [3H]nisoxetine 1 nM
# T11 construct: host or cells: CHO cells
# MT1 (ML1A) (h) = target: T12, MT1 (ML1A) (h) (Homo sapiens, UniProt P48039); assay: Competition assay to measure binding affinity at MT1 receptor; conditions: test ligand 10 μM; [125I]2-iodomelatonin 0.01 nM
# T12 construct: host or cells: CHO cells
# T12 sequence (P48039 whole entry): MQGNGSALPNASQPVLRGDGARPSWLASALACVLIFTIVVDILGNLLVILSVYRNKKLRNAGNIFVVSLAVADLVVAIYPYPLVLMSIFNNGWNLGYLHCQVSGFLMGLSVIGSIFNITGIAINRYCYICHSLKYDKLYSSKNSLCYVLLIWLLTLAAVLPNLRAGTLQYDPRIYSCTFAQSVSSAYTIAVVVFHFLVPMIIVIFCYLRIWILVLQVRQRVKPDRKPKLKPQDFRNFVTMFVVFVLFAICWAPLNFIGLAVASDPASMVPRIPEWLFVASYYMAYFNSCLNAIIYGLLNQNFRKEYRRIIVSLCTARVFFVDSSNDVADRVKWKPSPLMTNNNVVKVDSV
# 5-HT7 (h) = target: T13, 5-HT7 (h) (Homo sapiens, UniProt P34969); assay: Competition assay to measure binding affinity at 5-HT7 receptor; conditions: test ligand 10 μM; [3H]LSD 4 nM
# T13 construct: host or cells: HEK-293 cells
# T13 sequence (P34969 whole entry): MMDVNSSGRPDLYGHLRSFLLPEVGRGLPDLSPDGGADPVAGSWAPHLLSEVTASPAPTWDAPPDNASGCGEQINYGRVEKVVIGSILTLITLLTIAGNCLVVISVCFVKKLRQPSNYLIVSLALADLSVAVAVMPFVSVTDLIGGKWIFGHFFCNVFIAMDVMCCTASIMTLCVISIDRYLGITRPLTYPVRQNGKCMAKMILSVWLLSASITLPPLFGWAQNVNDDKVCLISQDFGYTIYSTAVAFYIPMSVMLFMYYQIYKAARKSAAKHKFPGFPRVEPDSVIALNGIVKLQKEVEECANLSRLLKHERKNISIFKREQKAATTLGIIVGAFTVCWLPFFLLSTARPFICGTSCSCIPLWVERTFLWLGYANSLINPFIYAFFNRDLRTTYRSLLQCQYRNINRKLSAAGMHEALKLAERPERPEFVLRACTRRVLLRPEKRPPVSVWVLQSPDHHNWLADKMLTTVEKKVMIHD
# T1 sequence (P35462 whole entry): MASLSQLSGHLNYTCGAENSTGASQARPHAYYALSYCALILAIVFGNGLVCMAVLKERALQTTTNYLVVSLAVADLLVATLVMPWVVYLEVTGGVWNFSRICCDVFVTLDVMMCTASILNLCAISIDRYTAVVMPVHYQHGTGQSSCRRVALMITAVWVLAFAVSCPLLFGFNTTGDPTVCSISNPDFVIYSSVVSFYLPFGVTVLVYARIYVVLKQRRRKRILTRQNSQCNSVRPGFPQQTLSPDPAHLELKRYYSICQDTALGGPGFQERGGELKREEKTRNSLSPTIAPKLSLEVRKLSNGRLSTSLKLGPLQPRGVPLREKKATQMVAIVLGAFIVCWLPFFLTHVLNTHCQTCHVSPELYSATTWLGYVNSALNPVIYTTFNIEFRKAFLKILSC
SMILES,"D3, percent of control-specific binding (D3 (h))","HT1D, percent of control-specific binding (5-HT1D (r))","HT2B, percent of control-specific binding (5-HT2B (h))",EC50 (5-HT1A receptor [1]),Ki [2],Ki (5-HT2A receptor),"D2, percent of control-specific binding (D2 (h))","HT1B, percent of control-specific binding (5-HT1B (h))",Ki (5-HT1A receptor [3]),"HT2C, percent of control-specific binding (5-HT2C (h))",inhibition at 10 µM (alpha2A (h)),"DAT, percent of control-specific binding (DAT (h))","NET, percent of control-specific binding (NET (h))","MT1, percent of control-specific binding (MT1 (ML1A) (h))","HT7, percent of control-specific binding (5-HT7 (h))",also measured
FC1(F)Oc2ccc(CCN3CCCC3)cc2O1 [A(XXVIII)],16%,1%,15%,374 µM,23.7 µM,15.6 µM,6%,0%,1.98 µM,53%,26%,0%,0%,0%,15%,
"COc1cc(CCN)c(OC)cc1Br [2C-B, reference compound]",43%,100%,99%,,,,42%,77%,0.2 µM,,,5%,13%,86%,88%,"5-HT1A receptor engagement (change in cAMP levels), in words (5-HT1A receptor [1]; +5-HT1A cells, 4 μM forskolin, FIGS. 37B-37H): reduction in cAMP levels; EC50 (5-HT1A receptor [1]; reduction of cAMP in +5-HT1A cells stimulated with 4 μM forskolin, 20 min, read-out: 5-HT1A, EC50): 5.95 µM; SERT binding, binding curve in words [2]: bind SERT to varying degrees; Ki ([2]; read-out: SERT, Ki): 11.4 µM; Ki (5-HT2A receptor; read-out: 5-HT2A, Ki, competition with 1 nM [3H]ketanserin, test compound 3 nM to 1 mM): 0.414 µM; α-2A, percent of control-specific binding (alpha2A (h)): 88%"
Brc1cc2c(cc1CCN1CCCC1)OCO2 [A(XXV)],70%,30%,76%,0.342 µM,10.9 µM,7.65 µM,21%,0%,0.0635 µM,87%,61%,11%,28%,1%,71%,
COc1cc2c(cc1CCNCCO)OCO2 [A(XXIV)],13%,29%,43%,32.3 µM,52.2 µM,26 µM,7%,0%,0.993 µM,76%,11%,5%,0%,0%,35%,
OCCNCCc1cc2c(cc1Br)OCO2 [A(XXX)],30%,39%,54%,11.7 µM,84.3 µM,11.7 µM,4%,0%,0.295 µM,57%,6%,0%,6%,0%,61%,
